Source: publication PMC10266789 (The Journal of Clinical Investigation, 2023)
Read-outs that look alike come from different tables or passages of the source.

What was measured:
recombinant human SIRT1 = target: T1, recombinant human SIRT1 (Homo sapiens, UniProt Q96EB6); assay: SIRT deacylase assay, deacetylation of Ac-H3K9WW peptide, mass spectrometry; format: biochemical; conditions: Figure 1C; n = 3
T1 construct: purified, recombinant SIRT2^2–389, SIRT1^1–747, or SIRT3^1–400 protein (GenScript); purchased GenScript
T1 sequence (Q96EB6 1-747): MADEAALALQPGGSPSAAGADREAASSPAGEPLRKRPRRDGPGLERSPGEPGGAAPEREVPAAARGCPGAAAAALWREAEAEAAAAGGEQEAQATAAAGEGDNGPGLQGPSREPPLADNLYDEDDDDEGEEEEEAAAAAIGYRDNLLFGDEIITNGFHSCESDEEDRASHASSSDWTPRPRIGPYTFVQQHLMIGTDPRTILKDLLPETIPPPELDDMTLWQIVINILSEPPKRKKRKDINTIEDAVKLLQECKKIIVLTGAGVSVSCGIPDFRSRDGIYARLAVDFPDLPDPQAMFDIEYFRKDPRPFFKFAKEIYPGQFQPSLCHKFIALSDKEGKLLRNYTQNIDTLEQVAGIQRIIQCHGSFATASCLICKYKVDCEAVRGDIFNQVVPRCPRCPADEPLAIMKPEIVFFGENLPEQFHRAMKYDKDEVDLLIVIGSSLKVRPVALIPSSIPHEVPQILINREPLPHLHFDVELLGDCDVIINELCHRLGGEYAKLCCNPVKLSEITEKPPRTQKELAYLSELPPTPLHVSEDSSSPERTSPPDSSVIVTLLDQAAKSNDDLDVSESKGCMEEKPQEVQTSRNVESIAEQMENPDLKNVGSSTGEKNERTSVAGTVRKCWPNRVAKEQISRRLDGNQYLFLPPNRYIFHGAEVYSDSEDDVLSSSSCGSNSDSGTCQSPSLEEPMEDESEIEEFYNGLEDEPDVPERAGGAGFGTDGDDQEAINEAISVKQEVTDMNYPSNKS

[1] = tested on: acetylated α-tubulin in HepG2 cells; assay: Western blot of acetylated α-tubulin in HepG2 cells; format: cell-based, human; conditions: 24 hours, plus 1 µM trichostatin A
Experimental: Supplemental Figure 1. […] (A) HepG2 cells were treated with FLS- […]
determined by western blot. Total a-tubulin was monitored as a control. (B) MDA-MB-231 cells or (C) MRC-5 fibroblasts were treated with drug for 72h and c-Myc was monitored by western blot with b-actin as a control. Western blots are representative of three independent experiments.
(1 picture or pasted object on this page, not shown here)

[2] = Host cell cytotoxicity, Calu3; format: cell-based; conditions: Calu3 cells; human Calu3; SARS-CoV-2 assay
[3] = Host cell cytotoxicity, Akata; format: cell-based; conditions: Akata cells (Burkitt lymphoma cell line); human Akata; Epstein-Barr assay
Experimental: The Akata Burkitt lymphoma cell line is permissive for EBV lytic reactivation through activation of the B cell receptor ([52]). As expected, 24 hours after receptor engagement with anti-IgG, 30% of Akata cells induced surface expression of the late EBV gene gp350, which serves as a proxy for cells that are replicating viral DNA and forming new virions (Figure 3A).

HCMV DNA = assay: Intracellular HCMV DNA accumulation by qPCR in MRC-5; format: cell-based, human cytomegalovirus; conditions: 72 hours
[4] = tested on: HCMV TB40/E-mCherry-UL99eGFP; assay: Infectivity of HCMV progeny particles (DNase I-resistant viral DNA vs TCID50); format: cell-based, human cytomegalovirus
HCMV virions = tested on: HCMV virions; parameters: species or system human cytomegalovirus; conditions: 1 or 5 μM; 96 hours at 37°C
[5] = Mouse pharmacokinetics, plasma; format: in vivo; conditions: single 50 mg/kg p.o., female BALB/c mice
Experimental: The pharmacokinetics study used fed female BALB/c mice (22 g, n = 3 per time point). Blood samples (~30 μL via saphenous vein puncture) were taken at 0.25, 0.5, 1, 2, 4, 8, and 24 hours. […] The lower limit of quantification was 10 ng/mL. An aliquot of 10 μL plasma sample was mixed with 10 μL terfenadine solvent plus 2 μL methanol. An additional 200 μL of terfenadine solvent was added, and the resulting mixture was vortexed for 1 minute and centrifuged at 1,500g for 15 minutes. The supernatant was diluted 10× with methanol/water (1:1 vol/vol with 0.1% formic acid), and 2 μL aliquots were analyzed using a QTRAP 4000 LC-MS/MS System (Sciex) with a C18 column (Kinetex). Pharmacokinetic parameters were determined with the noncompartmental analysis tool in WinNonlin (Certara).
Plasma samples from groups
Mean +/- SD is presented.

HCMV TB40/E = assay: Mouse gelfoam-fibroblast model of HCMV infection; format: in vivo, CIEA NOG mice; conditions: day 11; TCID50; FLS-359 50 mg/kg p.o. b.i.d.; valganciclovir 50 mg/kg p.o. daily; P < 0.03
[6] = tested on: SARS-CoV-2 (strain USA-WA1/2020); conditions: SARS-CoV-2/human Calu3
[7] = tested on: Influenza A (strain A/California/07/2009)
[8] = tested on: Betacoronavirus 1 (strain OC43); conditions: HCoV-OC43/human MRC-5
[9] = tested on: Hepatitis B virus (genotype D, subtype ayw); conditions: Hepatitis B/human PHH
[10] = tested on: Epstein-Barr virus (EBV; strain Akata); assay: microbe, parasite or virus in culture; conditions: human gammaherpesvirus 4, Akata, read-out: IC50, Epstein-Barr
[11] = tested on: HCMV TB40/E-mCherry-UL99eGFP; assay: HCMV delayed treatment protocol, infected cell area in MRC-5; conditions: for IC50: Human betaherpesvirus 5, MRC5, 120 h, 5 days of treatment

## Cc1cn(-c2ccc3c(c2)CN(c2ncc(Cc4ccc(-n5cccn5)cc4)s2)CC3)c(C)n1 [FLS-359, 7-(2,4-dimethyl-1H-imidazol-1-yl)-2-(5-{[4-(1H-pyrazol-1-yl)phenyl]methyl}-1,3-thiazol-2-yl)-1,2,3,4-tetrahydroisoquinoline]
Recombinant human SIRT1
  IC50: > 100000 nM
[1]
  increase of acetylated α-tubulin level: about 3 factor
[2]
  CC50: 15800 nM
[3]
  CC50: > 100000 nM
HCMV DNA; 3 IU/cell
  intracellular viral DNA accumulation: compromised
HCMV DNA; Figure 8B
  reduction in intracellular viral DNA levels: approximately 3 fold
[4]; 1.0 μM, 2 hpi to 96 hpi, 1 IU/cell
  reduction of particle/infectious unit ratio (infectivity): 14.5 factor
[4]; 2.5 or 5.0 μM, 2 hpi to 96 hpi
  reduced infectivity: more than 1,690 fold
[4]; Figure 8E
  reduction in extracellular virus particles: approximately 70 fold
[4]; Figure 8E, discussion
  reduction of viral infectivity: more than 1,600 fold
HCMV virions
  effect of incubating virus stock with drug on infectivity: no significant effect on infectivity
[5]; female, BALB/c, mouse, in vivo, po, 50 mg/kg, read-out: plasma half-life (T1/2) (converted)
  half-life: 5.8 ± 1.4 h
[5]; female, BALB/c, mouse, plasma, po, 50 mg/kg
  Cmax: 89.3 ± 11 µM
[5]; mouse, plasma, po
  AUC(0-inf): 713 µM·h
  Tmax: 2 h
[5]; plasma, 50 mg/kg
  Cmax: 89 µM
HCMV TB40/E
  virus production in gelfoam implants: significantly reduced virus production
[6]
  SI CC50/IC50: 52.7
[7]; Influenza A/human dNHBE
  SI CC50/IC50: >83.3
[7]; human dNHBE
  IC90, Influenza A (column headed IC50, footnote C: IC90): 1.2^C μM
[8]
  SI CC50/IC50: >30.1
[9]
  SI CC50/IC50: >2.1
[10]
  IC50: 3800 nM
[11]; read-out: IC50, infected cell area, drug added at 0 hpi, 0.1 IU/cell
  IC50: 900 nM
[11]; read-out: IC50, infected cell area, drug added at 24 hpi
  IC50: 600 nM
[11]; read-out: IC50, infected cell area, drug added at 48 hpi
  IC50: 800 nM
[11]; read-out: IC50, infected cell area, drug added at 72 hpi
  IC50: 900 nM
[11]; read-out: IC50, infected cell area, drug added at 96 hpi
  IC50: 900 nM
[11]; drug added at 0 hpi
  Maximum Fold-Reduction in infected cell area: 11.6
[11]; drug added at 24 hpi
  Maximum Fold-Reduction in infected cell area: 33.4
[11]; drug added at 48 hpi
  Maximum Fold-Reduction in infected cell area: 21.2
[11]; drug added at 72 hpi
  Maximum Fold-Reduction in infected cell area: 17.6
[11]; drug added at 96 hpi
  Maximum Fold-Reduction in infected cell area: 21.8
